Results taken from patent US11420962B2, “Indene derivatives useful in treating pain and inflammation” (TARO PHARMACEUTICALS INC., priority 2018, dated 2022).

Columns and labels:
T cells = experiment: T cell proliferation (anti-CD3/anti-CD28 dynabeads, CCK-8); assay type: cell-based, mice; details: Table 4, mouse T cells, 72 hours after dynabeads, read-out: Scoring (IC50, cell proliferation)
Experimental: Spleens were obtained from six male, CD-1 outbred mice, approximately 8 weeks old. Cells were harvested under sterile conditions by forcing each spleen though a cell filter (pore size 100 μm diameter). A homogenous cell suspension was obtained by washing the cells in fresh medium and passing cells through a smaller cell filter (pore size 70 μm).
Untouched T cells were isolated using the Pan T cell isolation kit (Miltenyi Biotech). Briefly, cells were counted and incubated with the required volume of antibody cocktail for 5 minutes at 4° C. before addition of microbeads and incubation for 10 minutes at 4° C. Labeled cells were retained in a magnetic column while unlabeled cells (T cells) passed through the column and were retained for use in the assay.
Cell viability was assessed by Trypan Blue exclusion and found to be >99% prior to transfer to plates. Isolated T cells were seeded out in 96 well plates at a density of 50,000 cells per well and allowed to incubate for 60 minutes in a humidified cell culture (37° C., 5% CO2) incubator prior to compound treatment. The media used for this assay (TexMACS, Miltenyi Biotech) was previously optimized for proliferation of T cells in serum free conditions.
Representative compounds of the invention (i.e., test compounds) were prepared as 30 mM stocks in 100% DMSO. Test compounds were initially diluted in media to yield 3 mM stocks before an additional 1:10 dilution in media was performed to yield working stocks of 300 μM (1% DMSO). Subsequent dilutions were performed in media (supplemented with 1% DMSO). When added to the assay plates (1:10 dilution), these yielded final concentrations in the assay plates of in 0.1% DMSO. The reference compound, Cyclosporin A, was prepared in an identical manner as above.
Unstimulated and Stimulated Control wells received an identical volume of TexMACS media/1% DMSO at this time, resulting in a final concentration of 0.1% DMSO across the plate. Mouse anti-CD3/anti-CD28 dynabeads were prepared (following the manufacturers' instructions) in TexMACS media and added to appropriate wells to achieve a final concentration of 1 bead per cell. Unstimulated Control wells then received an identical volume of TexMACS. Plates were centrifuged 72 hours after addition of dynabeads, (300×g for 3 minutes) to pellet the cells and 60% of the supernatant was removed to a fresh plate for analysis by ELISA. After removal of 60% of the supernatant for subsequent ELISA, cell proliferation was assessed using the CCK-8 assay.
Average response by the standard compound, cyclosporin A, was 1 uM.

rats (male, Wistar) = experiment: Complete Freund's Adjuvant (CFA) model of inflammatory pain in rats; assay type: in vivo; details: 30 mg/kg dose
Experimental: Representative compounds of the invention (i.e., test compounds) were tested in this model of inflammatory pain. The rats (male, Wistar) were acclimatized to the instruments (plantar test surface and dynamic plantar aesthesiometer) on two consecutive days prior to the initiation of the study. On Day 0, basal paw withdrawal latency and paw withdrawal threshold were taken and animals were randomized to different groups. Complete Freund's Adjuvant (CFA) at 1 mg/mL (0.1 mL) was injected into the plantar surface of right hind paw. Test compounds (3 or 30 mg/kg) were administered PO, twice (Day 0 and Day 1) or once, on Day 1 (24 h after CFA). Thermal hyperalgesia and mechanical allodynia were assessed at 0 (baseline), 1, 3 and 6 h after administration of the test compound on Day 1. Diclofenac was used as a reference compound, given once on Day 1.

[1] = Metabolism by human liver microsomes; assay type: in vitro ADME; details: Table 8; 10 µM, in the presence of NADPH, 1 mg/mL protein
Outline: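 Compound at 10 μM preincubated 10 min at 37 °C with human liver microsomes (1 mg/mL protein), 100 mM Tris HCl pH 7.5; started with 1 mM NADPH, run 60 min. Percent remaining at 60 min versus 0-time by LC-MS/MS analyte/internal-standard ratio, scored in bands.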

Scoring (% of drug remaining after 60 minutes, PDR60) [1]: B (a PDR^60 of 61 to 80%)
SMILES: C=C1CC[C@H]2[C@H](CN)[C@@H]([C@@]3(C)Cc4cn[nH]c4C[C@@H]3CO)CC[C@]12C [Ia-1, ((5R,6S)-5-((3aS,4R,5S,7aS)-4-(aminomethyl)-7a-methyl-1-methyleneoctahydro-1H-inden-5-yl)-5-methyl-4,5,6,7-tetrahydro-1H-indazol-6-yl)methanol]
IC50 (T cells): 6 to 15 µM | increase in the paw withdrawal threshold (rats (male, Wistar)): 31%
